Test results reported in US12053529B2, “Amino-reactive positively charged ATRP initiators that maintain their positive charge during synthesis of biomacro-initiators” (Carnegie Mellon University, priority 2018, dated 2024).
Starred links: 1 amine or outer side, 2 acyl side, 3 side chain; linkers in the order of their positions; H or OH if unused. Residues, ends and D or L forms follow the SMILES beside them. *: point of attachment. pNA = O=[N+]([O-])c1ccc(N*)cc1; Suc = O=C(CCC(=O)[*:2])[*:1]

Tests used:
[1] = molecular target: α-chymotrypsin (CT) from bovine pancreas, CT-mixed initiator (average of 9 neutral and 5 positive initiators per CT) (Bos taurus, UniProt P00766); experiment: Michaelis-Menten kinetics, Suc-AAPF-pNA hydrolysis, CT-mixed initiator; format: biochemical; settings: pH 8, 37° C.
Method: (§1) CT and Lysozyme were used as received. AChE and Uricase were dialyzed in 25 mM sodium phosphate (pH 7.0) using a 25 kDa molecular weight cutoff dialysis tube in a refrigerator for 24 hours and then lyophilized. Copper (II) chloride, sodium ascorbate, 1,1,4,7,10,10-hexamethyltriethylenetetramine (HMTETA), 2-bromo-2-methylpropionyl bromide, 3-(dimethylamino)-1-propylamine, N,N′-diisopropylcarbodimine, fluorescamine, acetylthiocholine iodide, 5,5′-dithiobis(2-nitrobenzoic acid) (DTNB) were purchased from Sigma Aldrich. 4-bromobutyric acid and N-hydroxysuccinimide were purchased from TCI USA (Portland, OR). Micro BCA assay kit was purchased from Thermo Fisher Scientific.
(§2) CT: N-succinyl-Ala-Ala-Pro-Phe-p-nitroanilide (Suc-AAPF-pNA; SEQ ID NO:1) was used as a substrate for CT. Substrate (0-20 mg/mL in DMSO, 30 μL) was added to a 1.5 mL cuvette with sodium phosphate buffer (pH 8, 100 mM). […] The initial substrate hydrolysis rate was measured in triplicate by recording the increase in absorbance at 412 nm over the first 60 seconds after mixing using a Lambda 2 Perkin Elmer ultraviolet-visible spectrometer equipped with a temperature-controlled cell holder at 37° C. Michaelis-Menten parameters were determined using nonlinear curve fitting of initial hydrolysis rate versus substrate concentration in GraphPad. […]

[2] = molecular target: α-chymotrypsin (CT) from bovine pancreas, CT-positive initiator-pCBMA (Bos taurus, UniProt P00766); experiment: Michaelis-Menten kinetics, Suc-AAPF-pNA hydrolysis, CT-positive initiator-pCBMA; format: biochemical; settings: pH 8, 37° C.
Method: as §1, with “Scientific. […]” for “Scientific.”
(§3) CT-pCBMA and pSMA conjugate synthesis: A solution of monomer (230 mg for CBMA and 246 mg for SMA, 1.0 mmol respectively) and CT-initiator (23 mg for neutral and 25 mg for positive initiator, 10 μmol of initiator) in 100 mM sodium phosphate (20 mL, pH 7) was sealed and bubbled with nitrogen gas in an ice bath for 30 minutes. […] Conjugate CT content was determined by BCA assay as described elsewhere (Lee et al. 2005, supra). […]
(§4) CT: N-succinyl-Ala-Ala-Pro-Phe-p-nitroanilide (Suc-AAPF-pNA; SEQ ID NO:1) was used as a substrate for CT. […] Michaelis-Menten parameters were determined using nonlinear curve fitting of initial hydrolysis rate versus substrate concentration in GraphPad. […]

[3] = molecular target: α-chymotrypsin (CT) from bovine pancreas, CT-neutral initiator (CT(N)) (Bos taurus, UniProt P00766); experiment: Michaelis-Menten kinetics, Suc-AAPF-pNA hydrolysis, CT-neutral initiator; format: biochemical; settings: pH 8, 37° C.; CT-neutral initiator vs native CT
Method: as §1, with “Scientific. […]” for “Scientific.”
as §2, with “CT.” for “CT. Substrate (0-20 mg/mL in DMSO, 30 μL) was added to a 1.5 mL cuvette with sodium phosphate buffer (pH 8, 100 mM).”

[4] = molecular target: α-chymotrypsin (CT) from bovine pancreas, CT-positive initiator (CT(+)) (Bos taurus, UniProt P00766); experiment: Michaelis-Menten kinetics, Suc-AAPF-pNA hydrolysis, CT-positive initiator; format: biochemical; settings: pH 8, 37° C.; CT-positive initiator vs native CT
Method: as §1, with “Scientific. […]” for “Scientific.”
as §2, with “CT.” for “CT. Substrate (0-20 mg/mL in DMSO, 30 μL) was added to a 1.5 mL cuvette with sodium phosphate buffer (pH 8, 100 mM).”

[5] = molecular target: α-chymotrypsin (CT) from bovine pancreas, CT-neutral initiator-pCBMA (Bos taurus, UniProt P00766); experiment: Michaelis-Menten kinetics, Suc-AAPF-pNA hydrolysis, CT-neutral initiator-pCBMA; format: biochemical; settings: pH 8, 37° C.
Method: as §1, with “Scientific. […]” for “Scientific.”
as §3, §4

[6] = molecular target: α-chymotrypsin (CT) from bovine pancreas, CT-positive initiator-pSMA (Bos taurus, UniProt P00766); experiment: Michaelis-Menten kinetics, Suc-AAPF-pNA hydrolysis, CT-positive initiator-pSMA; format: biochemical; settings: pH 8, 37° C.; CT-positive initiator-pSMA vs CT-neutral initiator-pSMA
Method: as §1, with “Scientific. […]” for “Scientific.”
as §3, §4

[7] = molecular target: acetylcholinesterase (AChE) from Electrophorus electricus, positive initiator (+) (Electrophorus electricus, UniProt O42275); experiment: Michaelis-Menten kinetics, acetylthiocholine iodide hydrolysis, AChE-positive initiator; format: biochemical, Electrophorus electricus (electric eel); settings: AChE-positive initiator vs AChE-neutral initiator
Chain of acetylcholinesterase (AChE) from Electrophorus electricus, positive initiator (+) (O42275 24-633): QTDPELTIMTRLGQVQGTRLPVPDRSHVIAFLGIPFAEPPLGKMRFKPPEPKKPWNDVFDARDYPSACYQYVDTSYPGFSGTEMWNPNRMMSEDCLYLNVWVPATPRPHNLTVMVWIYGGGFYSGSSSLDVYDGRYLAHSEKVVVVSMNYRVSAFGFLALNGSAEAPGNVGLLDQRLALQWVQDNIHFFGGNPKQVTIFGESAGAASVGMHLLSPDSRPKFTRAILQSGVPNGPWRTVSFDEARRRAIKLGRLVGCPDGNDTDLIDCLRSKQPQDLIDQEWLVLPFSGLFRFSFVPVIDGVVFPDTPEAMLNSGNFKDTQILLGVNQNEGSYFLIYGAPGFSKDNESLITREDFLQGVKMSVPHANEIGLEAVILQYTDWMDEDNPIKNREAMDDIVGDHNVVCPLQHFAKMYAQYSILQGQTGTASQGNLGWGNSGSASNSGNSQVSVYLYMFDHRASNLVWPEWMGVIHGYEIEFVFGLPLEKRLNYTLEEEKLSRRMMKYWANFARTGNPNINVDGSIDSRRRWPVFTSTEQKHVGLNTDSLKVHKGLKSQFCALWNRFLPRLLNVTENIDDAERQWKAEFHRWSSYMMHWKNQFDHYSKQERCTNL
Method: as §1
(§5) AChE: 100 μL of NHS-functionalized ATRP initiator solution in DMSO (12.7 μmol, 4.3 mg for neutral and 5.5 mg for positive initiator, respectively) was added to AChE solution (7 mg of AChE in 10 mL of 100 mM phosphate (pH 8.0)) and stirred at room temperature for 2 hours. […] The concentration of AChE initiator conjugates was determined using a Micro BCA Assay Kit.
AChE: Acetylthiocholine iodide (0-100 μL of 10 mM in 100 mM sodium phosphate buffer (pH 7.4)) and 10 μL of DTNB solution (50 mM in DMSO) was mixed with 100 mM sodium phosphate (980-880 μL, pH 7.4). […] Michaelis-Menten parameters were determined by nonlinear curve fitting of initial rate versus substrate concentration plots using Prism 7 software (GraphPad).

[8] = molecular target: acetylcholinesterase (AChE) from Electrophorus electricus, neutral initiator (N)-pSMA (Electrophorus electricus, UniProt O42275); experiment: Michaelis-Menten kinetics, acetylthiocholine iodide hydrolysis, AChE (N)-pSMA; format: biochemical, Electrophorus electricus (electric eel); settings: pH 7.4, 37° C., DTNB
Chain of acetylcholinesterase (AChE) from Electrophorus electricus, neutral initiator (N)-pSMA (O42275 24-633): as above
Method: as §1, §5, §3
AChE: Acetylthiocholine iodide (0-100 μL of 10 mM in 100 mM sodium phosphate buffer (pH 7.4)) and 10 μL of DTNB solution (50 mM in DMSO) was mixed with 100 mM sodium phosphate (980-880 μL, pH 7.4). […] The initial rate was monitored by recording the increasing in absorbance as 412 nm using an UV-VIS absorbance spectrometer with a temperature controlled cell folder at 37° C. Michaelis-Menten parameters were determined by nonlinear curve fitting of initial rate versus substrate concentration plots using Prism 7 software (GraphPad).

| SMILES | kcat [1] | kcat/KM [1] | kcat/KM ([2]; CT-positive initiator-pCBMA) | overall catalytic efficiency versus native CT ([2]; CT-positive initiator-pCBMA vs native CT) | change in KM versus native CT [3] | change in KM versus native CT [4] | kcat/KM [5] | overall activity (kcat and KM) versus CT-neutral initiator-pSMA [6] | KM increase versus AChE-neutral initiator [7] | KM [8] | kcat [8] | kcat/KM [8] |
| --- | --- | --- | --- | --- | --- | --- | --- | --- | --- | --- | --- | --- |
| C[C@H](NC(=O)CCC(=O)O)C(=O)N[C@@H](C)C(=O)N1CCC[C@H]1C(=O)N[C@@H](Cc1ccccc1)C(=O)Nc1ccc([N+](=O)[O-])cc1 [Suc-AAPF-pNA, N-succinyl-Ala-Ala-Pro-Phe-p-nitroanilide] (Suc-AAPF-pNA) | 16.7 ± 0.4 s⁻¹ | 200000 ± 10000 M⁻¹ s⁻¹ | 420000 ± 20000 M⁻¹ s⁻¹ | nearly double that of native CT | decrease in KM by half | decrease in KM by half | 300000 ± 10000 M⁻¹ s⁻¹ | ~20 fold | – | – | – | – |
| CC(=O)SCC[N+](C)(C)C.[I-] [acetylthiocholine iodide] | – | – | – | – | – | – | – | – | about 2.4 × | undetectable | undetectable | undetectable |
